Data from ChEMBL document CHEMBL4270648, “Molecular design, synthesis and biological evaluation of cage compound-based inhibitors of hepatitis C virus p7 ion channels” (Eur J Med Chem, 2018).

Experiments:
[1] = Cytotoxicity against calf heart cells assessed as reduction in cell viability by colorimetric method; type: cell-based, Bos taurus; conditions: cattle
[2] = Selectivity index, ratio of CC50 for calf heart cells to IC50 for BVDV VK-1 infected in calf heart cells; type: toxicity, cell-based; conditions: cattle, read-out: Ratio CC50/IC50
[3] = Inhibition of p7 ion channel in BVDV VK-1 infected in calf heart cells assessed as reduction in viral growth by colorimetric method; type: cell-based, Bovine viral diarrhea virus 1; conditions: Bovine viral diarrhea virus isolates and strains

| SMILES | CC50 [1] [µM] | selectivity ratio [2] | IC50 [3] [µM] |
| --- | --- | --- | --- |
| O=c1[nH][nH]c2c1C1CC3CC(CC2C3)C1 | > 485 | > 12.2 | 39.7 |
| CCC1CC2CC3CC(C2)CC1(O)C3 (centres undefined) | 403 | 95.2 | 4.24 |
| c1ccc2[nH]cc(C34CC5CC(CC(C5)C3)C4)cc[nH]c2c1 | 128 | 6.3 | 20.3 |
| CCN(CC)C[C@H]1O[C@@H]1C12CC3CC(CC(C3)C1)C2 (relative stereo) | 90.4 | 2.3 | 39.5 |
| O=S1(=O)OC23CC4CC(CC(C4)C2)C[C@H]3[C@@H]1CNCc1ccccc1 | 96 | 1.7 | 56.5 |
| C[C@H](O)[C@H](N)C12CC3CC(CC(C3)C1)C2 | > 407 | > 4 | 103 |
| O=C(O)CC12CC3CC(O)(C1)CC(CC(=O)O)(C3)C2 | > 373 | > 3.2 | 116 |
| C1C2CC3CC1CC(C2)c1nc2c(nc13)C1CC3CC(C1)CC2C3 | > 312 | > 3.1 | 102 |
| O=C(O)C(Br)C12CC3CC(CC(O)(C3)C1)C2 (centres undefined) | > 346 | > 1.8 | 193 |
| c1cc(OC23CC4CC(CC(C4)C2)C3)ccn1 | 290 | 7.8 | 37.4 |
| CC(=O)NC(C)C12CC3CC(CC(C(=O)O)(C3)C1)C2 (centres undefined) | > 377 | > 13.1 | 28.9 |
| CC(=O)NCC12CC3CC(C1)CC(CC(=O)O)(C3)C2 | > 377 | > 2.1 | 181 |
| CC1=CCCN(CC(O)C23CC4CC(CC(C4)C2)C3)C1 (centres undefined) | 190 | 7.5 | 25.2 |
| O/N=C1\C(=N\O)C2CC3CC(CC1C3)C2 | 480 | 142 | 3.38 |
| O=C1/C(=N/O)C2CC3CC(CC1C3)C2 | > 518 | > 2.9 | 177 |
| O=c1[nH]cc(C23CC4CC(CC(C4)C2)C3)cc1C12CC3CC(CC(C3)C1)C2 | > 275 | > 107 | 2.56 |
| CC12CC3(N)CC(CC(=O)O)(C1)CC(CC(=O)O)(C2)C3 | > 315 | > 2.7 | 118 |
| C[C@@H]1N[C@H]1C12CC3CC(CC(C3)C1)C2 | 105 | 1.4 | 76.7 |
| c1ccc2c[n+](CCC34CC5CC(CC(C5)C3)C4)ccc2c1 | 83 | 1.5 | 56.6 |
| O=C1CCC(C23CC4CC(CC(C4)C2)C3)=NN1c1ccccc1 | 235 | > 450 | < 0.52 |
| CC(=C(C#N)C#N)C12CC3CC(CC(C3)C1)C2 | 106 | 4.1 | 25.9 |
| O=c1ccc(C23CC4CC(CC(C4)C2)C3)n[nH]1 | > 434 | > 21.8 | 20 |
| NCC12CC3CC(C1)CC(CC(=O)O)(C3)C2 | > 385 | > 1 | 382 |
| C1CN(C[C@H]2O[C@@H]2C23CC4CC(CC(C4)C2)C3)CCO1 (relative stereo) | 271 | 1.7 | 164 |
| OC(CN1CCCc2ccccc21)C12CC3CC(CC(C3)C1)C2 (centres undefined) | > 321 | > 1.5 | 213 |
| O=S1(=O)OC23CC4CC(CC(C4)C2)C[C@H]3[C@@H]1CN1CCOCC1 | > 293 | > 4.7 | 62.1 |
| O=S1(=O)OC23CC4CC(CC(C4)C2)C[C@H]3[C@@H]1CN1CCCCC1 | > 295 | > 1.8 | 163 |

| SMILES | CC50 [1] [µM] | selectivity ratio [2] | IC50 [3] [µM] |
| --- | --- | --- | --- |
| Oc1noc2c1C1CC3CC(CC2C3)C1 | > 487 | > 82 | 5.94 |
| Oc1ccccc1C1(n2cncn2)C2CC3CC(C2)CC1C3 (centres undefined) | > 339 | > 56.5 | 5.99 |
| COP(=O)(OC)[C@@H](C(=O)C12CC3CC(CC(C3)C1)C2)[C@H](C[N+](=O)[O-])c1ccccc1 (relative stereo) | > 230 | > 21.7 | 10.6 |
| CC1=NC(C)(C23CC4CC(CC(C4)C2)C3)CO1 (centres undefined) | 168 | 5 | 33.4 |
| CC1(c2ccccc2)CCCN(CCC23CC4CC(CC(C4)C2)C3)C1 (centres undefined) | 86.7 | 28.7 | 3.02 |
| O=C(NCc1ccccc1)C1C(=O)C2CC3CC(C2)CC1C3 (centres undefined) | > 336 | > 5.1 | 66.6 |
| Cc1cccc[n+]1CC(=O)C12CC3CC(CC(C3)C1)C2 | > 285 | > 3.6 | 78.8 |
| CN(C)C1=NC2(c3ccccc3O1)C1CC3CC(C1)CC2C3 (centres undefined) | 72.1 | 1 | 70.9 |
| O=c1ccn(C23CC4CC(CC(C4)C2)C3)cc1 | 158 | 4.5 | 35.3 |
| Cc1cccc[n+]1CCC12CC3CC(CC(C3)C1)C2 | 297 | 32 | 9.3 |
| O=c1cc[nH]cc1C12CC3CC(CC(C3)C1)C2 | > 436 | > 33.9 | 12.9 |
| O=C([C@@H]([C@H](C[N+](=O)[O-])c1ccccc1)S(=O)(=O)c1ccccc1)C12CC3CC(CC(C3)C1)C2 (relative stereo) | > 215 | > 114 | 1.89 |
| O=C(O)CC12CC3(O)CC(CC(=O)O)(C1)CC(C(=O)O)(C3)C2 | > 320 | > 1.1 | 282 |
| c1ccc2nc3c(nc2c1)C1CC2CC(C1)CC3C2 | > 400 | > 50.8 | 7.87 |
| CCN(CC)C[C@H](Cl)[C@H](O)C12CC3CC(CC(C3)C1)C2 (relative stereo) | 274 | 20.5 | 13.4 |
| C=C(COc1ccccc1C(=O)OCC)C12CC3CC(CC(C3)C1)C2 | 35.8 | 7.8 | 4.57 |
| CN(C)c1cc[n+](C23CC4CC(CC(C4)C2)C3)cc1 | 199 | 8.1 | 24.4 |
| N#CC(C#N)=C(/C=C/N1CCOCC1)C12CC3CC(CC(C3)C1)C2 | > 309 | > 3.6 | 86.4 |
| c1ccc2c(c1)Oc1ncnn1C21C2CC3CC(C2)CC1C3 (centres undefined) | > 341 | > 54.7 | 6.23 |
| O=C(C[n+]1ccccc1)C12CC3CC(CC(C3)C1)C2 | > 297 | > 3.9 | 75.9 |
| C1CN[C@H]2C3CC4CC(CC(C4)[C@H]2N1)C3 | > 358 | > 211 | 1.69 |
| O=C(C[n+]1cccc2ccccc21)C12CC3CC(CC(C3)C1)C2 | 133 | 8.7 | 15.2 |
| CC(O)(CNC(=O)C(F)(F)F)C12CC3CC(CC(C3)C1)C2 (centres undefined) | 259 | 3.4 | 75.4 |
| O/N=C1/CC2CC3CC(C2)CC1C3 | 148 | 20.6 | 7.21 |
| CC1(c2ccccc2)CCN(CCC23CC4CC(CC(C4)C2)C3)CC1 | 90.7 | 32.1 | 2.82 |
| CSc1ncn(C2(c3ccccc3O)C3CC4CC(C3)CC2C4)n1 (centres undefined) | 119 | 5.2 | 22.9 |
